According to US9481648B2, “Kinase inhibitors” (Respivert Limited, priority 2013, dated 2016):

Legend:
[1] = target: c-Src (Homo sapiens (Human), UniProt P12931); assay: c-Src enzyme inhibition (FRET, Z-LYTE); assay type: biochemical
Procedure: (§1) The enzyme inhibitory activities of compounds disclosed herein are determined by FRET using synthetic peptides labelled with both donor and acceptor fluorophores (Z-LYTE, Invitrogen Ltd., Paisley, UK).
(§2) The relevant enzyme (3000 ng/mL or 2000 ng/mL respectively, 2.5 μL) is incubated with the test compound (either 1 μg/mL, 0.1 μg/mL, 0.01 μg/mL, or 0.001 μg/mL, 2.5 μL each) for 2 hr at RT. The FRET peptides (8 μM, 2.5 μL), and appropriate ATP solutions (2.5 μL, 800 μM for c-Src, and 60 μM ATP for Syk) are then added to the enzymes/compound mixtures and the mixture incubated for 1 hr. Development reagent (protease, 5 μL) is added for 1 hr prior to detection in a fluorescence microplate reader (Varioskan® Flash, ThermoFisher Scientific).
(§3) In all cases, the site-specific protease cleaves non-phosphorylated peptide only and eliminates the FRET signal. Phosphorylation levels of each reaction are calculated using the ratio of coumarin emission (donor) over fluorescein emission (acceptor), for which high ratios indicate high phosphorylation and low ratios indicate low phosphorylation levels.

[2] = system: β-catenin in d-U937 cells; assay: Accumulation of β catenin in d-U937 cells (assay m); assay type: cell-based, human
Procedure: U937 cells, a human monocytic cell line, are differentiated into macrophage-type cells by incubation with PMA (100 ng/mL) for between 48 to 72 hr. The cells are then incubated with either final concentrations of test compound or vehicle for 18 hr. The induction of β-catenin by the test compounds is stopped by replacing the media with 4% formaldehyde solution. Endogenous […] is neutralised by incubating with quenching buffer (100 μL, 0.1% sodium azide, 1% H2O2 in PBS with 0.05% Tween-20) for 20 min. The cells are washed with washing buffer (200 μL; PBS containing 0.05% Tween-20) and incubated with blocking solution (200 μL; 5% milk in PBS) for 1 hr, re-washed with washing buffer (200 μL) and then incubated overnight with anti-β-catenin antibody solution (50 μL) in 1% BSA/PBS (BD, Oxford, UK).
After washing with washing buffer (3×200 μL; PBS containing 0.05% Tween-20), cells are incubated with a HRP-conjugated secondary antibody solution (100 μL) in 1% BSA/PBS (Dako, Cambridge, UK) and the resultant signal is determined colourimetrically (OD: 450 nm with a reference wavelength of 655 nm) using TMB substrate (50 μL; R&D Systems, Abingdon, UK). This reaction is stopped by addition of 1N H2SO4 solution (50 μL). Cells are then washed with washing buffer and 2% crystal violet solution (50 μL) is applied for 30 min. After washing with washing buffer (3×200 μL), 1% SDS (100 μL) is added to each well and the plates are shaken lightly for 1 hr prior to measuring the absorbance at 595 nm (Varioskan® Flash, Thermo-Fisher Scientific).
The measured OD450-655 readings are corrected for cell number by dividing the OD450-655 by the OD595 readings.

[3] = target: Syk (Homo sapiens (Human), UniProt P43405); assay: Syk enzyme inhibition (FRET, Z-LYTE); assay type: biochemical
Procedure: as §1, §2, §3

[4] = target: GSK 3α (Homo sapiens (Human), UniProt P49840); assay: GSK 3α enzyme inhibition (FRET, Z-LYTE; Method 2); assay type: biochemical; conditions: read-out: IC50 Values for Enzyme Inhibition GSK3α
Sequence of GSK 3α (P49840 whole entry): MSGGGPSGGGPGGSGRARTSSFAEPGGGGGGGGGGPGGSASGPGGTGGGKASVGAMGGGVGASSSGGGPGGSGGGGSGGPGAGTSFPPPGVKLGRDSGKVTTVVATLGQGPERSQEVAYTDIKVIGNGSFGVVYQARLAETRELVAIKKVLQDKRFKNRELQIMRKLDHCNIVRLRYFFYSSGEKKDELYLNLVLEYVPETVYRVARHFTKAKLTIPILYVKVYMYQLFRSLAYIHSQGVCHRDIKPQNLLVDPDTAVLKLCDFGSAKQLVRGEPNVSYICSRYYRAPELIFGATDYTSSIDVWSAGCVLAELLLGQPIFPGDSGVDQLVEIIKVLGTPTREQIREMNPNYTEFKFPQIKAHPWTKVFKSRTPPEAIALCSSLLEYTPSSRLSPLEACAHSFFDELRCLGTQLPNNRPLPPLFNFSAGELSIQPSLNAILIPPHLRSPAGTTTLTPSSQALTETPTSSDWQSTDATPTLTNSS
Procedure, shortened: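 Z-LYTE FRET assay: GSK3-α (500 ng/mL stock) preincubated 105 min at RT with compound at 10, 1, 0.1 or 0.01 μg/mL stock. FRET peptide (8 μM stock) and ATP (40 μM stock) were then added for 1 h, followed by protease development for 1 h. Phosphorylation was read as coumarin/fluorescein emission ratio.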

[5] = target: p38 MAPKα (MAPK14) (Homo sapiens (Human), UniProt Q16539); assay: p38 MAPKα enzyme inhibition (FRET, Z-LYTE; Method 2); assay type: biochemical
Sequence of p38 MAPKα (MAPK14) (Q16539 whole entry): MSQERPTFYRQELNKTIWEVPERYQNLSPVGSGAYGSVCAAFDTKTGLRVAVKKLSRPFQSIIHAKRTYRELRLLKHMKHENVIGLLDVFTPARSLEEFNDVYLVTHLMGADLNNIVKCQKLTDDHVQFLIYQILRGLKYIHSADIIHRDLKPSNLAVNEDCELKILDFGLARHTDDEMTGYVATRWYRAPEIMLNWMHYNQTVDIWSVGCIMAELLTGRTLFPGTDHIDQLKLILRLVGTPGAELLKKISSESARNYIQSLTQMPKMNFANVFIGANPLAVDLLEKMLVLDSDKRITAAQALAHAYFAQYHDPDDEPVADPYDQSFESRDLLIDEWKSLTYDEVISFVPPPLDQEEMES
Procedure: as §1
The inhibitory activities of test compounds against the p38 MAPKα isoform (MAPK14: Invitrogen) are evaluated indirectly by determining the level of activation\phosphorylation of the down-stream molecule, MAPKAP-K2. The p38 MAPKα protein (80 ng/mL, 2.5 μL) is mixed with the test compound (2.5 μL of either 4 μg/mL, 0.4 μg/mL, 0.04 μg/mL or 0.004 μg/mL) for 2 hr at RT. […] The mixture is incubated for 1 hr at RT. Development reagent (protease, 5 μL) is added for 1 hr prior to detection in a fluorescence microplate reader (Vanoskan® Flash, ThermoFisher Scientific).
as §3

Sequence of c-Src (P12931 whole entry, looked up): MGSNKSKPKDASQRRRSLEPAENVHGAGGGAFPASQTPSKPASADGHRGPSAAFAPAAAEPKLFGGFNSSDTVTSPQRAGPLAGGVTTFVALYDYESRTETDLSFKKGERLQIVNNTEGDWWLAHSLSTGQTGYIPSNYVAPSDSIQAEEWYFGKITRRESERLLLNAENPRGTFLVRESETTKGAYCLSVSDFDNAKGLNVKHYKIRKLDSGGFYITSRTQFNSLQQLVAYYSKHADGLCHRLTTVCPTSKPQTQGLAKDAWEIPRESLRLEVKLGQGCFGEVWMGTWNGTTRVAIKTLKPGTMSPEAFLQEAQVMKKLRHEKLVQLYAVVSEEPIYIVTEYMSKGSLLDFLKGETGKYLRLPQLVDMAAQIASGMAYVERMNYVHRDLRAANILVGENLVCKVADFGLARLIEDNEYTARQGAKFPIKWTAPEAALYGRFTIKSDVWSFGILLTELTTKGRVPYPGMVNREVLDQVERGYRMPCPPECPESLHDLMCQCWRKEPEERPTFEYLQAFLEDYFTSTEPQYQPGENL

| SMILES | IC50 [1] [nM] | % β-catenin induction ([2]; test compound 1 μg/mL) [%] | % β-catenin induction ([2]; test compound 5 μg/mL) [%] | % β-catenin induction ([2]; test compound 10 μg/mL) [%] | IC50 [3] [nM] | IC50 [4] [nM] | IC50 [5] [nM] |
| --- | --- | --- | --- | --- | --- | --- | --- |
| COCCOCCOCCOCCOCCOCCOCCOc1cc(Nc2nccc(Oc3ccc(NC(=O)Nc4cc(C(C)(C)C)cc(NS(C)(=O)=O)c4OC)c4ccccc34)n2)cc(OC)c1 [Example 14, N-(3-(3-(4-((2-((3-(2,5,8,11,14,17,20-Heotaoxadocosan-22-yloxy)-5-methoxyphenyl)amino)-pyrimidin-4-yl)oxy)naphthalen-1-yl)ureido)-5-(tert-butyl)-2-methoxyphenyl)-methanesulfonamide] | 11 | 0 | 16 | 14 | 106 | 1010 | 49 |
| COCCOCCOCCOc1cc(Nc2nccc(Oc3ccc(NC(=O)Nc4cc(C(C)(C)C)cc(NS(C)(=O)=O)c4OC)c4ccccc34)n2)cc(OC(F)F)c1 [Example 17, N-(5-(tert-Butyl)-3-(3-(4-((2-((3-(difluoromethoxy)-5-(2-(2-(2-methoxyethoxy)ethoxy)-ethoxy)phenyl)amino)pyrimidin-4-yl)oxy)naphthalen-1-yl)ureido)-2-methoxyphenyl)-methanesulfonamide] | 40 | 5 | 23 | 23 | 149 | 5460 | 179 |
| COc1cc(Nc2nccc(Oc3ccc(NC(=O)Nc4cc(C(C)(C)C)cc(NS(C)(=O)=O)c4OC)c4ccccc34)n2)cc(OCCOCCOCCN2CCOCC2)c1 [Example 18, N-(5-(tert-Butyl)-2-methoxy-3-(3-(4-((2-((3-methoxy-5-(2-(2-(2-mormholinoethoxy)ethoxy)-ethoxy)phenyl)amino)pyrimidin-4-yl)oxy)naphthalen-1-yl)ureido)phenyl)methanesulfonamide] | 10 | 1 | 9 | 17 | 76 | 3120 | 52 |
| COCCOCCOCCOc1cc(Nc2nccc(Oc3ccc(NC(=O)Nc4cc(C(C)(C)C)cc(C(N)=O)c4OC)c4ccccc34)n2)cc(OC)c1 [Example 20, 5-(tert-Butyl)-2-methoxy-3-(3-(4-((2-((3-methoxy-5-(2-(2-(2-methoxyethoxy)ethoxy)-ethoxy)phenyl)amino)pyrimidin-4-yl)oxy)naphthalen-1-yl)ureido)benzamide] | 6 | 4 | 31 | 29 | 29 | 748 | 33 |
| COCCOCCOCCOc1cc(Nc2nccc(Oc3ccc(NC(=O)Nc4cc(NS(C)(=O)=O)cc(C(C)(C)C)c4)c4ccccc34)n2)cc(OC)c1 [Example 24, N-(3-(tert-Butyl)-5-(3-(4-((2-((3-methoxy-5-(2-(2-(2-methoxyethoxy)ethoxy)ethoxy)-phenyl)amino)pyrimidin-4-yl)oxy)naphthalen-1-yl)ureido)phenyl)methanesulfonamide] | 14 | −3 | 27 | 25 | 549 | 680 | 30 |
| COCCOCCOc1cc(Nc2nccc(Oc3ccc(NC(=O)Nc4cc(C(C)(C)C)cc(NS(C)(=O)=O)c4OC)c4ccccc34)n2)cc(OC)c1 [Example 36, N-(5-(tert-Butyl)-2-methoxy-3-(3-(4-((2-((3-methoxy-5-(2-(2-methoxyethoxy)ethoxy)-phenyl)amino)pyrimidin-4-yl)oxy)naphthalen-1-yl)ureido)phenyl)methanesulfonamide] | 16 | −4 | 28 | 18 | 67 | 2090 | 69 |
